Measurements published in ChEMBL document CHEMBL1127000, “Synthesis and excitatory amino acid pharmacology of some novel quinoxalinediones” (Bioorg Med Chem Lett, 1993).
pKi: −log10 of the molar value.

Tests used:
[1] = target: Glutamate receptor ionotropic, NMDA 1 (Rattus norvegicus, UniProt P35439); assay: Binding affinity for glycine site-NMDA receptor was determined by the ability to displace [3H]glycine in rat cortical membranes; format: cell membranes
[2] = target: Glutamate receptor ionotropic, AMPA (Rattus norvegicus, UniProt P19490+P19491+P19492+P19493)
[3] = target: Glutamate receptor ionotropic, AMPA (Rattus norvegicus) (UniProt P19491+P19492+P19493+P19490); assay: Binding affinity for Ionotropic glutamate receptor AMPA was determined by the ability to displace [3H]AMPA in rat cortical membranes at 10 uM; format: cell membranes
[4] = target: Glutamate receptor ionotropic, NMDA 1 (Rattus norvegicus) (UniProt P35439); assay: Binding affinity for glycine site-NMDA receptor was determined by the ability to displace [3H]glycine in rat cortical membranes at 10 uM; format: cell membranes
[5] = target: Glutamate receptor ionotropic, NMDA 1 (Rattus norvegicus) (UniProt P35439); assay: Tested for the ability to displace [3H]glycine in rat cortical membranes at a concentration of 10 uM; format: cell membranes

SMILES | pKi [1] | pKi [2] | Displacement [3] | Displacement [4] | Displacement [5]
Cc1cc2[nH]c(=O)c(=O)n(CC(=O)Nc3ccccc3)c2cc1C | – | – | 5.2% | – | 2.9%
Cc1ccc(S(=O)(=O)NC(=O)Cn2c(=O)c(=O)[nH]c3cc(C)c(C)cc32)cc1 | – | – | 28% | 48% | –
O=C(O)Cn1c(=O)c(=O)[nH]c2cc(Cl)c(Cl)cc21 | 6.96 | 5.68 | – | – | –
COC(=O)Cn1c(=O)cnc2cc(C)c(C)cc21 | – | – | 4.6% | – | 8%
O=c1[nH]c2cc(Cl)c(Cl)cc2n(Cc2nn[nH]n2)c1=O | – | – | 58.6% | 58.8% | –

The remaining lines, values ahead:

pKi [1] | pKi [2] | Displacement [3] | Displacement [4] | Displacement [5] | SMILES
5.28 | 5.92 | – | – | – | Cc1cc2[nH]c(=O)c(=O)n(CP(=O)(O)O)c2cc1C
– | – | 52.4% | 49.6% | – | Cc1cc2[nH]c(=O)c(=O)n(Cc3nn[nH]n3)c2cc1C
– | – | 49% | 36% | – | Cc1cc2[nH]c(=O)c(=O)n(CC(=O)NS(C)(=O)=O)c2cc1C
4.86 | 6.15 | – | – | – | Cc1cc2[nH]c(=O)c(=O)n(CC(=O)O)c2cc1C
– | – | 28.5% | 58.2% | – | Cc1cc2[nH]c(=O)c(=O)n(CCC(=O)O)c2cc1C
– | – | 13.9% | 2.6% | – | Cc1cc2[nH]c(=O)c(=O)n(C(C)C(=O)O)c2cc1C (centres undefined)
– | 5.10 | – | 29.6% | – | Cc1cc2[nH]c(=O)c(=O)n(CCCC(=O)O)c2cc1C
